Results: PMC5829821, “Mmf1p Couples Amino Acid Metabolism to Mitochondrial DNA Maintenance in Saccharomyces cerevisiae” (mBio, 2018)

Columns and labels:
Format in all cases: biochemical
[1] = biological target: T1, Ilv1p(46−576) (Saccharomyces cerevisiae, UniProt P00927); test: pyruvate formation at A230, Michaelis-Menten fit; settings: 50 mM potassium phosphate pH 8
T1 construct: gene ILV1
T1 sequence (P00927 46-576): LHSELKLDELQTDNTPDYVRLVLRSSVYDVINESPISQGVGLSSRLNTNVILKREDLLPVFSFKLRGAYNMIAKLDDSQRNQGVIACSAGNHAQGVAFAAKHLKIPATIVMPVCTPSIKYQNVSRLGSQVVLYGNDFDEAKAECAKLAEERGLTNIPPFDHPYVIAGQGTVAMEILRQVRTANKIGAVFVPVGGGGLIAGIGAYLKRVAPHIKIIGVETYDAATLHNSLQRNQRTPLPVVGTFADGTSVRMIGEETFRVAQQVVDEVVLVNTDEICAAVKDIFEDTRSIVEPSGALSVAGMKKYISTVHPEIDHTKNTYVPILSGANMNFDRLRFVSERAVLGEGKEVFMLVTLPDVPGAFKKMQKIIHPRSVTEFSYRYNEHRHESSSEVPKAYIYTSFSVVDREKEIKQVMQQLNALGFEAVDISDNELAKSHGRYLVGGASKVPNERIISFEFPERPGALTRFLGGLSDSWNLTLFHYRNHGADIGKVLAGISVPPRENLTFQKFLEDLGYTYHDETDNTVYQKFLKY

[2] = biological target: T1, Ilv1p(46−576); settings: 120 mM L-serine, 50 mM potassium phosphate pH 8; allosteric
[3] = biological target: T2, RidA (Salmonella enterica, UniProt Q7CP78); test: coupled: 2AA generated by Ilv1p([…]-576) from L-serine, pyruvate at A230; settings: 50 mM CHES pH 9.5, 0.6 µM Ilv1p, 1.3 µM RidA
T2 construct: purified RidA, preparation described in earlier work
T2 sequence (Q7CP78 1-128): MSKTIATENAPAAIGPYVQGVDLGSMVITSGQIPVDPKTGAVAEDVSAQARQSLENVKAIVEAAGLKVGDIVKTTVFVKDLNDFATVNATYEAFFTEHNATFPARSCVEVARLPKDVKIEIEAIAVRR

[4] = biological target: T3, Mmf1p(21−147) (Saccharomyces cerevisiae, UniProt P40185); test: as above; settings: 50 mM CHES pH 9.5, 0.6 µM Ilv1p, 1.3 µM Mmf1p
T3 construct: gene MMF1
T3 sequence (P40185 21-145): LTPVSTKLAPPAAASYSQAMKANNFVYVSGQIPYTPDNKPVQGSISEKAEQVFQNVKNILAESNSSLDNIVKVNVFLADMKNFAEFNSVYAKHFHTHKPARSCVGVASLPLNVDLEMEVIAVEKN

SMILES: N[C@@H](CO)C(=O)O [L-serine]
- pyruvate formation at A230, Michaelis-Menten fit [1]: In vitro, Ilv1p dehydrated serine and released 2AA

SMILES: CC[C@H](C)[C@H](N)C(=O)O [isoleucine]
- inhibition at 3.3 mM [2]: insensitive to isoleucine concentrations that completely inhibited the wild-type enzyme

SMILES: C=C(N)C(=O)O [2-aminoacrylate]
- coupled: 2AA generated by Ilv1p(46-576) from L-serine, pyruvate at A230 [3]: 2AA-hydrolyzing activity of Mmf1p was indistinguishable from that of the well-characterized RidA enzyme
- coupled: 2AA generated by Ilv1p(46-576) from L-serine, pyruvate at A230 [4]: released 2AA, which Mmf1p used as a substrate
